The results in this text go back to ChEMBL document CHEMBL4387706, “Discovery of Novel Spiroindoline Derivatives as Selective Tankyrase Inhibitors” (J Med Chem, 2019).

Data set [1] is filed under the species Homo sapiens. Put plainly: Effect on hippo signaling protein in human COLO320DM cells assessed as change in CYR61 expression at 0.1 to 1 uM measured after 48 hrs by RT-PCR analysis. In kind it is cell-based.
A short description of data set [2]: Protein binding in mouse serum assessed as unbound fraction at 1 uM measured after 24 hrs by LC-MS/MS analysis. It is filed as ADME, cell-free.
A further data set in a line: physchem. The settings on record: phosphate buffer, pH 7.4.
The nature of data set [3]: Volume of distribution at steady state in Sprague-Dawley rat at 1 mg/kg, iv. In kind it is ADME, organism-based. The settings on record: in vivo, read-out: Vdss.
Data set [4] can be described thus: AUC (infinity) in Sprague-Dawley rat at 1 mg/kg, iv. It is filed as ADME, organism-based. Set-up: dose 1 mg/kg, route intravenous, time infinity. The conditions noted are these: in vivo.
A short description of data set [5]: in vitro. The conditions noted are these: mouse, liver microsomes. For orientation: Liver microsomes are a subcellular fraction often used to study metabolism.
Description: Stability in mouse liver microsomes assessed as parent compound remaining at 1 uM measured after 30 mins in presence of NADPH by LC-MS/MS analysis
Data set [6] in a line: Initial plasma concentration in Sprague-Dawley rat at 1 mg/kg, iv. It is filed as ADME, organism-based.
The target of data set [7] is T1, Protein mono-ADP-ribosyltransferase PARP10 (Homo sapiens, UniProt Q53GL7).
T1 sequence (Q53GL7 whole entry): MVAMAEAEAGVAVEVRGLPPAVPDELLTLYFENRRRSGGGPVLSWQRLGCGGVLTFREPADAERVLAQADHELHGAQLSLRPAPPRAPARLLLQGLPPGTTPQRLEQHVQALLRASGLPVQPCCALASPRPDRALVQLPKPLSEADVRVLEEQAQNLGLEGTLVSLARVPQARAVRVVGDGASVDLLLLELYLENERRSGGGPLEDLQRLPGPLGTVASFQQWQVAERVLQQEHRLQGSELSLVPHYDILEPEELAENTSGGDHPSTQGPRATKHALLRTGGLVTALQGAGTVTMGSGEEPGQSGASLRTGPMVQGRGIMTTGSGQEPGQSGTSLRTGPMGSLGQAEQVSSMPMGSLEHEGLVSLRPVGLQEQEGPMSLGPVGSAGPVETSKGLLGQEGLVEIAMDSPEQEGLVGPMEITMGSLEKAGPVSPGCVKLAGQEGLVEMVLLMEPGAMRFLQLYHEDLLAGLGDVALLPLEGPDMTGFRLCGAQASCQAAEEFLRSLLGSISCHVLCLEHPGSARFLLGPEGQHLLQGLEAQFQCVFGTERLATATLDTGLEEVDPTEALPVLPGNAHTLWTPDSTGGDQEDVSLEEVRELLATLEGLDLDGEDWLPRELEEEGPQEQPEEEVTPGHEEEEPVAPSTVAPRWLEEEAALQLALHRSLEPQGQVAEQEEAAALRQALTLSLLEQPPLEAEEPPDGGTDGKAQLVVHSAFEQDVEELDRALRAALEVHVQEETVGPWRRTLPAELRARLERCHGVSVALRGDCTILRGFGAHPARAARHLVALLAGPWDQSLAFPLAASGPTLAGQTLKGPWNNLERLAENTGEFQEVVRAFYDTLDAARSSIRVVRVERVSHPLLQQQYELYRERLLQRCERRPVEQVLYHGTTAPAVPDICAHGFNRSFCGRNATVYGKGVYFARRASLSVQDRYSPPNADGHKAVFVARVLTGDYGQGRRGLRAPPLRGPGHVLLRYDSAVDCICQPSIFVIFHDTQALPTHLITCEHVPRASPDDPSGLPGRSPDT
The data set is described as follows: Inhibition of human recombinant N-terminal TEV-cleavgae site-fused-FLAG/Polyhis-tagged PARP10 […] expressed in Escherichia coli assessed as reduction in auto-PARylation using histone as substrate measured after 45 mins in presence of biotinylated-NAD+ by ELISA. A general note: In an ELISA, binding on a coated surface is turned into a signal by an enzyme label.

Data set [8] is filed under the species Homo sapiens. Put plainly: Effect on hippo signaling protein in human COLO320DM cells assessed as change in AMOTL2 expression at 0.1 to 1 uM measured after 48 hrs by RT-PCR analysis. In kind it is cell-based.
A short description of data set [9]: AUC (infinity) in Sprague-Dawley rat at 3 mg/kg, po. In kind it is ADME, organism-based. Also on record: dose 3 mg/kg, time infinity, route oral. The conditions noted are these: in vivo.
For another data set, the system named is COLO 320DM. The data set is described as follows: Antitumor activity against human COLO320DM cells xenografted in mouse assessed as tumor growth inhibition at 40 mg/kg, ip administered twice daily for 11 days relative to control. In kind it is functional. The settings on record: 264 h, read-out: TGI.
The nature of data set [10]: Half life in Sprague-Dawley rat at 1 mg/kg, iv. It is filed as ADME, organism-based. The settings on record: in vivo.
Data set [11] is described as follows: Oral bioavailability in Sprague-Dawley rat at 3 mg/kg. In kind it is ADME, organism-based. The settings on record: in vivo.
A short description of data set [12]: Cmax in Sprague-Dawley rat at 3 mg/kg, po. It is filed as ADME, organism-based. Set-up: dose 3 mg/kg, route oral. The settings on record: in vivo.
For data set [13], the species on record is Homo sapiens. The data set is described as follows: Effect on hippo signaling protein in human COLO320DM cells assessed as change in CTGF expression at 0.1 to 1 uM measured after 48 hrs by RT-PCR analysis. It is filed as cell-based.
In data set [14] the target is Poly [ADP-ribose] polymerase 2 (Homo sapiens, UniProt Q9UGN5). The data set is described as follows: Inhibition of human recombinant N-terminal GST-tagged PARP2 (2 to 583 residues) expressed in baculovirus infected Sf9 cells assessed as reduction in auto-PARylation using histone as substrate measured after 45 mins in presence of biotinylated-NAD+ by ELISA.
A short description of data set [15]: Toxicity in mouse xenografted with human COLO320DM cells assessed as body weight loss at 40 mg/kg, ip administered twice daily for 11 days. In kind it is organism-based. The conditions noted are these: in vivo, 264 h. For orientation: In xenograft studies the graft and the host belong to different species.
Data set [16] is described as follows: in vitro. The conditions noted are these: human, liver microsomes.
Description: Stability in human liver microsomes assessed as parent compound remaining at 1 uM measured after 30 mins in presence of NADPH by LC-MS/MS analysis
A short description of data set [17]: Permeability of the compound by PAMPA. In kind it is ADME. The conditions noted are these: read-out: permeability.
A short description of data set [18]: Protein binding in human serum assessed as unbound fraction at 1 uM measured after 24 hrs by LC-MS/MS analysis. In kind it is ADME, cell-free.
Data set [19] has as its target Poly [ADP-ribose] polymerase 1 (Homo sapiens, UniProt P09874).
Description: Inhibition of recombinant human PARP1 expressed in Escherichia coli assessed as reduction in auto-PARylation using histone as substrate measured after 45 mins in presence of biotinylated-NAD+ by ELISA
Data set [20] can be described thus: Tmax in Sprague-Dawley rat at 3 mg/kg, po. In kind it is ADME, organism-based. The conditions noted are these: in vivo.
Data set [21] can be described thus: Total clearance in Sprague-Dawley rat at 1 mg/kg, iv. In kind it is ADME, organism-based. The conditions noted are these: in vivo.

SMILES strings stand for the structures. ≈ marks a conversion by molar mass, not a printed value. Calls of active or inactive are those of the source. No cut-off for these calls is given here.

Sequence of Poly [ADP-ribose] polymerase 1 (P09874 whole entry): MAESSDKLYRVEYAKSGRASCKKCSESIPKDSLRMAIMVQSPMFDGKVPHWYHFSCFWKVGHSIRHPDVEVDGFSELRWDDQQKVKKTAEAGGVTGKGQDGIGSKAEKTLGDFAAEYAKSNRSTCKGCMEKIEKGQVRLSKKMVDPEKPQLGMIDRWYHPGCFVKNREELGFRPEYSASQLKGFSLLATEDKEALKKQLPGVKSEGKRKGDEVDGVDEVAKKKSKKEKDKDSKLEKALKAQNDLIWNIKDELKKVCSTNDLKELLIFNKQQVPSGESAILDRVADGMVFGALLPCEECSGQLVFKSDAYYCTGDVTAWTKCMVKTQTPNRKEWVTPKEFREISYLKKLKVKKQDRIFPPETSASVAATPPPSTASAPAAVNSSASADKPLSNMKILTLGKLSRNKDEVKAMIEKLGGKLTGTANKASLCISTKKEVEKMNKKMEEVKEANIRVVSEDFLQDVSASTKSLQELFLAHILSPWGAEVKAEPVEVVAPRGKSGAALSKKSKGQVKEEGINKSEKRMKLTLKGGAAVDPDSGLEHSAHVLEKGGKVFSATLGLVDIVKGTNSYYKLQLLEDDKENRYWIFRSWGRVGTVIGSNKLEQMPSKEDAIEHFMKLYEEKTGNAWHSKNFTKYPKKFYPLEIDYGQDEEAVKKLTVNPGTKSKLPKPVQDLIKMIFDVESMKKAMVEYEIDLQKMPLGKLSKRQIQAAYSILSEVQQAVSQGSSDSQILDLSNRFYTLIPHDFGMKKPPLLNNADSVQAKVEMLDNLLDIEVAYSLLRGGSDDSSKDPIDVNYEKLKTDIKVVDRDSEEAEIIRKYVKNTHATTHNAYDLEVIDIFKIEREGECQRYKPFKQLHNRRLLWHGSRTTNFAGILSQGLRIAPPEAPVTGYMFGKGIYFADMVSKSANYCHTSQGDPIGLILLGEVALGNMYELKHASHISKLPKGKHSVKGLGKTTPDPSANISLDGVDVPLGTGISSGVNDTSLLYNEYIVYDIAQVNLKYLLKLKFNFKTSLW
Sequence of Poly [ADP-ribose] polymerase 2 (Q9UGN5 whole entry, the tested form may be a part): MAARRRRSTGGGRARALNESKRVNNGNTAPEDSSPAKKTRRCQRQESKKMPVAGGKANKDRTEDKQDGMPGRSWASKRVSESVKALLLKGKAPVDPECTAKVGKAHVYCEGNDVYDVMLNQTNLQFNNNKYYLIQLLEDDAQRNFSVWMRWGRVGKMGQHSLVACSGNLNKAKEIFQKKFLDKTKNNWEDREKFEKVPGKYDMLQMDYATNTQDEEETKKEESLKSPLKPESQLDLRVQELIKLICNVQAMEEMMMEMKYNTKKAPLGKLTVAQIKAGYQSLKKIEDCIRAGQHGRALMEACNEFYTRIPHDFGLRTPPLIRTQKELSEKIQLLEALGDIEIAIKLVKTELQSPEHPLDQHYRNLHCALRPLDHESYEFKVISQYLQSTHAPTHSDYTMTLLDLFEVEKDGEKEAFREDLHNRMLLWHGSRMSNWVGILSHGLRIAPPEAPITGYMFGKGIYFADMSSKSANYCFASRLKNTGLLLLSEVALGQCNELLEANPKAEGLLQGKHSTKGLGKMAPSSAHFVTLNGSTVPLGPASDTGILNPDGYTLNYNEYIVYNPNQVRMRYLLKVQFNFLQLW

Consider `CS(=O)(=O)c1ccc(-c2nnc(/C=C/c3nnc(-c4ccc(C#N)cc4)o3)n2-c2ccccc2Cl)nc1`, for which the outcome in the data set listed under Homo sapiens [1], in the data set filed under Homo sapiens [8] and in the data set listed under Homo sapiens [13] was inactive. Further, the fraction unbound at 24 h, 1 µM stood at 0.035 in [2] and 0.028 in [18]. Besides, the solubility at 1 h, 200 µM in the data set “physchem” is 1.5 µg/mL (≈ 2.83 µM). In addition, the Vd in [3] is 1.79 L/kg. The AUC(0-inf) in data set [4] amounted to 0.79 µM·h; in data set [9], 2.33 µM·h. Moreover, the values for the fraction remaining at 0.5 h, 1 µM in “in vitro [5]” and in “in vitro [16]” were 95.8% and 100%, respectively. In data set [6], this compound came in with a C0 of 1540 nM. Moreover, the IC50 in [7], in data set [14] and in [19] was over 100 µM throughout. Besides, the inhibition in vivo at 40 mg/kg in the data set with COLO 320DM was 48%. Besides, the half-life in [10] was 3.3 h. This compound registered a bioavailability in data set [11] of 97.8%. In data set [12], this compound gave a Cmax of 230 nM. For the same compound, in [15], the Activity result is listed as “Toxic”. In addition, the Papp in [17] turned out to be 11.4 ×10⁻⁶ cm/s. The Tmax in data set [20] is 4 h. For the same compound, the clearance in data set [21] was 39.7 mL/min/kg.

One may read the fraction unbound as free concentration divided by total concentration. The solubility is the concentration that dissolves in the medium under given conditions. The low end stands for a poorly soluble substance, the high end for a readily soluble substance. In general, AUC(0-inf) refers to the area under the concentration-time curve extrapolated to infinity. In general, fraction remaining refers to what is left of the initial amount, in per cent. Read a high fraction remaining as greater stability. For orientation: IC50 means the midpoint of a concentration-inhibition curve. As a reminder, the half-life is how long it takes for the measured level to halve. A low value points to fast loss. As usually defined, the bioavailability is dose-corrected exposure relative to a reference, in per cent. As usually defined, the Cmax is the maximum level reached in the sampled fluid or tissue. By Tmax is commonly meant the time at which the peak concentration occurs. Usually clearance stands for the volume of plasma or blood freed of the substance per unit of time. Low readings indicate inefficient removal, high ones efficient removal.
